Source: PMC7547722, “A versatile soluble siglec scaffold for sensitive and quantitative detection of glycan ligands” (Nature Communications, 2020)
“And” between values parts separate entries of the source, which are not always exact repeats. Identical values can stand only once.

Key:
[1] = tested on: U937 cells; experiment: Flow cytometry, Siglec-Fc pre-complexed with Strep-Tactin, streptavidin or anti-human IgG1; assay type: cell-based; settings: for Binding: Suppl Fig 4b
Protocol: (§1) Strep-Tactin-AF647 (0.55 μg/mL, 0.57 pmol), streptavidin (Biolegend), or anti-human igG1 (Biolegend) was added to Siglec supernatant (50 μL) or purified Siglec and allowed to sit at 4 °C for 15 min. After, the pre-complexed solution was added to cells in a 96-well U-bottom plate for 30 min at 4 °C. After, 200 μL of flow buffer (HBSS, 0.1% BSA, 5 mM EDTA) was added and the plate was spun down at 300 rcf for 5 min. The cells were resuspended in 200 μL of flow buffer and processed through the flow cytometer.
(§2) Flow cytometry was performed on a BD LSRFortessa™ X-20 cell analyzer using BD FACSDiva Software Version 8.0.1 and data was processed using FlowJo LLC. Version 9.9.6 and Graphpad Prism 8. The live, single cell populations were gated out with two gates to obtain the median fluorescence intensity (MFI), which indicates binding of the Siglec-Fc-secondary complex to the cell surface. Control cells that were incubated with Strep-Tactin-AF647 (0.55 μg/mL, 0.57 pmol) was used to determine the baseline fluorescence. Number of cells (# cells) plotted indicates percentage of max (% max).

[2] = tested on: A549 cells; experiment: Flow cytometry, pre-complexed Siglec-Fc binding; assay type: cell-based; settings: Strep-Tactin-AF647, replicates
Protocol: as §1, §2

[3] = tested on: HEK293T cells; experiment: Flow cytometry, pre-complexed Siglec-Fc binding; assay type: cell-based
Protocol: as §1, §2

[4] = tested on: HuH7 cells; experiment: Flow cytometry, pre-complexed Siglec-Fc binding; assay type: cell-based; settings: Strep-Tactin-AF647, replicates
Protocol: as §1, §2

[5] = tested on: Jurkat cells; experiment: Flow cytometry, pre-complexed Siglec-Fc binding; assay type: cell-based; settings: Strep-Tactin-AF647, replicates
Protocol: as §1, §2

[6] = tested on: K562 cells; experiment: Flow cytometry, pre-complexed Siglec-Fc binding; assay type: cell-based; settings: Strep-Tactin-AF647, replicates
Protocol: as §1, §2

[7] = tested on: BT549; experiment: Flow cytometry, pre-complexed Siglec-Fc binding to breast cancer cell line; assay type: cell-based; settings: Strep-Tactin-AF647, replicates
Protocol: as §1, §2

[8] = tested on: HS578T; experiment: as above; assay type: cell-based; settings: Strep-Tactin-AF647, replicates
Protocol: as §1, §2

[9] = tested on: MCF7; experiment: as above; assay type: cell-based; settings: Strep-Tactin-AF647, replicates
Protocol: as §1, §2

[10] = tested on: MDA-MB-231; experiment: as above; assay type: cell-based; settings: Strep-Tactin-AF647, replicates
Protocol: as §1, §2

[11] = tested on: MDA-MB-468; experiment: as above; assay type: cell-based; settings: Strep-Tactin-AF647, replicates
Protocol: as §1, §2

[12] = tested on: T47D; experiment: as above; assay type: cell-based; settings: Strep-Tactin-AF647, replicates
Protocol: as §1, §2

[13] = tested on: ZR-75-1; experiment: as above; assay type: cell-based; settings: Strep-Tactin-AF647, replicates
Protocol: as §1, §2

[14] = tested on: basophils (CCR3+); experiment: Siglec ligands on peripheral blood immune cells, flow cytometry; assay type: cell-based, human; set-up: key: median fluorescence intensity (MFI) of Siglec-Fc complex binding; settings: replicate values
Protocol: (§3) Siglec supernatant (50 μL) or purified Siglec was incubated with cells in a 96-well U-bottom plate for 30 min at 4 °C. Following the incubation, 200 μL of flow buffer (HBSS, 0.1% BSA, 5 mM EDTA) was added and the plate was spun down at 300 rcf for 5 min. Strep-Tactin-AF647 (0.55 μg/mL, 50 μL, 0.57 pmol), streptavidin (Biolegend), or anti-human IgG1 (Biolegend) was added to the cells and incubated for 30 min at 4 °C. After, 200 μL of flow buffer (HBSS, 0.1% BSA, 5 mM EDTA) was added and the plate was spun down at 300 rcf for 5 min. The cells were resuspended in 200 μL of flow buffer and processed through the flow cytometer.
as §1
(§4) For human splenocytes, the sample was homogenized in media through a 40 µm filter (Corning) under sterile conditions. Samples were centrifuged at 300 rcf for 5 min. The resulting pellet from the spleen sample and whole human blood were treated with RBC lysis buffer (7 min) and centrifuged at 300 rcf and the RBC lysis was repeated twice more until no RBC remained in the pellet. […]
(§5) Flow cytometry was performed on a BD LSRFortessa™ X-20 cell analyzer using BD FACSDiva Software Version 8.0.1 and data was processed using FlowJo LLC. […] The live, single cell populations were gated out with two gates to obtain the median fluorescence intensity (MFI), which indicates binding of the Siglec-Fc-secondary complex to the cell surface. Control cells that were incubated with Strep-Tactin-AF647 (0.55 μg/mL, 0.57 pmol) was used to determine the baseline fluorescence. […]

[15] = tested on: eosinophils (Siglec-8+); experiment: as above; assay type: cell-based, human; set-up: key: median fluorescence intensity (MFI) of Siglec-Fc complex binding; settings: replicate values
Protocol: as §3, §1, §4, §5

[16] = tested on: monocytes (CD14+); experiment: as above; assay type: cell-based, human; set-up: key: median fluorescence intensity (MFI) of Siglec-Fc complex binding; settings: replicate values
Protocol: as §3, §1, §4, §5

[17] = tested on: B-cells (CD19+); experiment: as above; assay type: cell-based, human; settings: replicate values
Protocol: (§6) For human splenocytes, the sample was homogenized in media through a 40 µm filter (Corning) under sterile conditions. Samples were centrifuged at 300 rcf for 5 min. The resulting pellet from the spleen sample and whole human blood were treated with RBC lysis buffer (7 min) and centrifuged at 300 rcf and the RBC lysis was repeated twice more until no RBC remained in the pellet. Samples were treated with human Fc-receptor blocking agent (TruStain FX, Biolegend) in flow buffer (HBSS, 0.1% BSA, 5 mM EDTA). For analysis, the following cocktail was used: hSig8 (PerCP/Cy5.5, clone 7C9, Biolegend cat. no. 347108, 1:200), hCD123 (PE/Cy7, clone 6H6, Biolegend cat. no. 306010, 1:200), hCD19 (PE, clone SJ25C1, Biolegend cat. no. 363004, 1:200), hCD3 (FITC, BD Pharmingen cat. no. 555332, 1:50), hCD14 (BV605, clone M5E2, BD Horizon cat. no. 564056, 1:200), hCD15 (BUV395, clone HI98, BD Horizon cat. no. 563872, 1:200), hCD56 (BV510, clone NCAM16.2, BD Horizon cat. no. 563041, 1:200). For human peripheral blood samples, we additionally used hHLA-DR (APC-Cy7, clone L243, Biolegend cat. no. 307618, 1:200). Pre-complexed Siglec-Fc/Strep-Tactin-AF647 (described above) was added to the antibody cocktail, added to cells, and allowed to stain at 4 °C for 45 min. The cells were then centrifuged at 300 rcf for 5 min and resuspended in flow buffer containing 1 µg/mL propidium iodide prior to analysis by flow cytometry.
as §2

[18] = tested on: NK cells (CD56+); experiment: as above; assay type: cell-based, human; settings: replicate values
Protocol: as §6, §2

[19] = tested on: T-cells (CD3+); experiment: as above; assay type: cell-based, human; settings: replicate values
Protocol: as §6, §2

[20] = tested on: cDCs (CD123dim/HLA-DR+); experiment: as above; assay type: cell-based, human; settings: cDC; replicate values
Protocol: as §6, §2

[21] = tested on: neutrophils (CD15+); experiment: as above; assay type: cell-based, human; settings: replicate values
Protocol: as §6, §2

[22] = tested on: pDCs (CD123high/HLA-DR+); experiment: as above; assay type: cell-based, human; settings: pDC; replicate values
Protocol: as §6, §2

[23] = tested on: neutrophils (CD15+), human splenocytes; experiment: Siglec-Fc (CD22-Fc V1/V2, with or without Fc receptor block) binding to splenocytes, flow cytometry; assay type: cell-based; settings: Suppl Fig 12; three replicate columns
Protocol: For human splenocytes, the sample was homogenized in media through a 40 µm filter (Corning) under sterile conditions. Samples were centrifuged at 300 rcf for 5 min. The resulting pellet from the spleen sample and whole human blood were treated with RBC lysis buffer (7 min) and centrifuged at 300 rcf and the RBC lysis was repeated twice more until no RBC remained in the pellet. Samples were treated with human Fc-receptor blocking agent (TruStain FX, Biolegend) in flow buffer (HBSS, 0.1% BSA, 5 mM EDTA). […]
as §5

[24] = tested on: B-cells (CD19+), human splenocytes; experiment: Siglec-Fc binding to splenocytes, flow cytometry; assay type: cell-based; settings: Suppl Fig 12; three replicate columns
Protocol: as §6, §2

[25] = tested on: NK cells (CD56+), human splenocytes; experiment: Siglec-Fc binding to splenocytes, flow cytometry; assay type: cell-based; settings: Suppl Fig 12; three replicate columns
Protocol: as §6, §2

[26] = tested on: T-cells (CD3+), human splenocytes; experiment: Siglec-Fc binding to splenocytes, flow cytometry; assay type: cell-based; settings: Suppl Fig 12; three replicate columns
Protocol: as §6, §2

[27] = tested on: monocytes (CD14+), human splenocytes; experiment: Siglec-Fc binding to splenocytes, flow cytometry; assay type: cell-based; settings: Suppl Fig 12; three replicate columns
Protocol: as §6, §2

[28] = tested on: K562 cells treated with Neuraminidase A; experiment: Pre-complexed Siglec-Fc binding with or without Neu-A pretreatment; assay type: cell-based; settings: Suppl Fig 7a
Protocol: as §1, §2
K562 cells were incubated with Neuraminidase A at 37 °C for 30 min with shaking every 5 min. Cells were then added to a 96-well U-bottom plate and incubated with pre-complexed Strep-Tactin-AF647/Siglec, as described above.

[29] = tested on: CMAS−/− HEK293 cells; experiment: Pre-complexed Siglec-Fc binding to sialic acid-deficient cells; assay type: cell-based; settings: Suppl Fig 7b; HEK CMASKO
Protocol: Custom crRNA (IDT) was designed to target human CMAS ([…]) and ST6Gal1 ([…]). Cells were seeded at 500,000 cells per well 1 day prior to transfection in a 6-well tissue culture plate. For one well of a 6-well plate, 20 pmol of Cas9 nuclease (IDT), 20 pmol of ATTO-550 labeled crRNA:tracrRNA (IDT) duplex, 8 μL Cas9 Plus reagent (IDT), and 16 μL CRISPRMAX reagent (Thermo Fisher) in 600 μL Opti-MEM medium (Gibco). One day after transfection, cells were removed from the plate by trypsin digestion, washed, resuspended in 300 μl of cell sorting medium (HBSS, 10% FBS, 1 mM EDTA), and stored on ice until sorting. Cells were sorted within the University of Alberta Flow Cytometry Core. The top 5% bright dyes stained with ATTO-550 were sorted into three 96-well plates containing regular culture medium at one cell per well. […]
as §5

[30] = molecular target: Strep-tag II; settings: cited from earlier work

Substance: Sig-1-Fc R116A
- Binding ([1]; Amount of Siglec 3.75 ug/mL): 54.5 and 53.7 and 57.1
- Binding ([1]; Amount of Siglec 7.5 ug/mL): 57.9 and 62.1 and 64.6
- Binding ([1]; Amount of Siglec 15 ug/mL): 67.9 and 72.2 and 70.4
- Binding ([1]; Amount of Siglec 30 ug/mL): 133 and 128 and 148
- Binding ([1]; Amount of Siglec 60 ug/mL): 157 and 165 and 148

Substance: Sig-8 R128A: Siglec-8-Fc essential arginine mutant
- binding of pre-complexed Siglec-Fc (MFI) ([1]; U937, Strep-Tactin-AF647, replicates, Fig. 2): 94.6 and 90.4 and 92.5
- binding of pre-complexed Siglec-Fc (MFI) [2]: 123 and 130 and 127
- binding of pre-complexed Siglec-Fc (MFI) ([3]; HEK, Strep-Tactin-AF647, replicates): 70.7 and 73.5 (2×)
- binding of pre-complexed Siglec-Fc (MFI) [4]: 92.2 and 88.8 and 95.7
- binding of pre-complexed Siglec-Fc (MFI) [5]: 80.5 and 89.6 and 88.9
- binding of pre-complexed Siglec-Fc (MFI) [6]: 133 and 120 and 116
- binding of pre-complexed Siglec-Fc (MFI) [7]: 101 and 105 (2×)
- binding of pre-complexed Siglec-Fc (MFI) [8]: 127 and 117 and 114
- binding of pre-complexed Siglec-Fc (MFI) [9]: 129 (2×) and 126
- binding of pre-complexed Siglec-Fc (MFI) [10]: 154 (2×) and 157
- binding of pre-complexed Siglec-Fc (MFI) [11]: 125 and 126 and 131
- binding of pre-complexed Siglec-Fc (MFI) [12]: 86.1 and 97.6 and 94.1
- binding of pre-complexed Siglec-Fc (MFI) [13]: 269 and 266 and 255
- Siglec-Fc binding (Figure 3d) [14]: 38.5 and 41.6 and 74.4
- Siglec-Fc binding (Figure 3d) [15]: 25.7 and 26.1 and 45
- Siglec-Fc binding (Figure 3d) [16]: 97.7 and 42.1 and 63.5
- Siglec-Fc binding (Figure 3d) [17]: 41.1 and 12.5 and 42.1
- Siglec-Fc binding (Figure 3d) [18]: 32.1 and 46.5 and 41.2
- Siglec-Fc binding (Figure 3d) [19]: 20.5 and 10.3 and 64.2
- Siglec-Fc binding (Figure 3d) [20]: 60.4 and -24.4 and 18
- Siglec-Fc binding (Figure 3d) [21]: 38.5 and 12.4 and 5.83
- Siglec-Fc binding (Figure 3d) [22]: 74.5 and 11.6 and 48.8
- Binding, Neutrophils [23]: -13.8 and -28.2 and -29.9
- Binding, B-cells [24]: 3.45 and -1.72 and -2.87
- Binding, NK [25]: 4.43 and 1.18 and 2.36
- Binding, T-cells [26]: 6.21 and 2.36 and 4.73
- Binding, Monocytes [27]: 15.5 and 9.76 and 8.04

Substance: Siglec-2
- Binding ([3]; Suppl Fig 7b, HEK WT): 631 and 654 and 721
- Binding ([28]; +Neuraminidase): 88.8 and 91.5 and 90.6
- Binding ([28]; -Neuraminidase): 2128 and 1497 and 1576
- Binding [29]: 86 and 84.2

Substance: Streptavidin: protein binding Strep-tag II with intermediate affinity [reference compound]
- Siglec-1-Fc Binding ([1]; Suppl Fig 4a, Streptavidin alone): 150 and 128 and 134
- Kd [30]: 72 µM
